Test results reported in patent publication US20230066946A1, “1,5-DIPHENYLPYRAZOLYL-3-OXYALKYL ACIDS AND 1-PHENYL-5-THIENYLPYRAZOLYL-3-OXYALKYL ACIDS AND THE USE THEREOF FOR CONTROL OF UNWANTED PLANT GROWTH” (Bayer Aktiengesellschaft, priority 2019, published 2023).

What was measured:
[1] = system: HORMU; test: Post-emergence herbicidal action against HORMU; format: in vivo, Hordeum murinum; settings: 320 g/ha, visual rating about 3 weeks after treatment
Method: (§1) [table] Seeds of mono- and dicotyledonous weed plants are placed in plastic pots in sandy loam soil (twin sowing with one species each of mono- or dicotyledonous weed plants per pot), covered with soil and cultivated in a greenhouse under controlled growth conditions. 2 to 3 weeks after sowing, the test plants are treated at the one-leaf stage. The compounds of the invention, formulated in the form of wettable powders (WP) or as emulsion concentrates (EC), are applied to the green parts of the plants as aqueous suspension or emulsion with addition of 0.5% additive at a water application rate equivalent to 600 litres per hectare. After the test plants have been kept in the greenhouse under optimum growth conditions for about 3 weeks, the activity of the preparations is rated visually in comparison to untreated controls. For example, 100% activity=the plants have died, 0% activity=like control plants. Tables 5.1-5.16 below show the effects of selected compounds of the general formula (I) according to Tables 1 to 3 on various harmful plants at an application rate corresponding to 1280 or 320 g/ha, which have been obtained by the aforementioned experimental method.

[2] = system: VIOTR; test: Post-emergence herbicidal action against VIOTR; format: in vivo, Viola tricolor; settings: 320 g/ha, visual rating about 3 weeks after treatment
How it was run: (§2)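 Herbicidal effect, rated visually about 3 weeks after treatment as percent versus untreated controls. Test plants in sandy loam had received a foliar application at the one-leaf stage of 1280 or 320 g/ha, formulated as WP or EC with 0.5% additive in 600 litres per hectare water.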

[3] = system: ALOMY; test: Post-emergence herbicidal action against ALOMY; format: in vivo, Alopecurus myosuroides; settings: 1280 g/ha, post-emergence at one-leaf stage, rated visually after about 3 weeks vs untreated controls
How it was run: as §2

[4] = system: harmful plants; test: Pre-emergence herbicidal action, summary of Tables 4.1-4.15; format: in vivo; settings: result in words
How it was run: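 Percent herbicidal action (100% = plants dead, 0% = like controls) was assessed visually about 3 weeks after treatment. Application rates of 1280 or 320 g/ha were applied to the covering soil of freshly sown sandy-loam pots, in 600 l/ha water with 0.5% additive, before emergence.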

[5] = system: STEME; test: Post-emergence herbicidal action against STEME; format: in vivo, Stellaria media; settings: visual rating about 3 weeks after treatment
How it was run: as §2

[6] = system: LOLRI; test: Post-emergence herbicidal action against LOLRI; format: in vivo, Lolium rigidum; settings: 1280 g/ha, post-emergence at one-leaf stage, rated visually after about 3 weeks vs untreated controls
Method: as §1

[7] = system: AMARE; test: Pre-emergence herbicidal action against AMARE; format: in vivo, Amaranthus retroflexus; settings: scored visually after about 3 weeks vs untreated controls; for Pre-emergence action at 320 g/ha against AMARE in %: 100% = plants have died, 0% = like control plants; for Pre-emergence action against AMARE in %: 1280 g/ha
How it was run: (§3)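 Scoring is visual, in percent relative to untreated pots, roughly 3 weeks after soil-surface application. Rates were 1280 or 320 g/ha, delivered as WP or EC preparations with 0.5% additive in 600 L/ha water onto freshly sown, covered sandy loam.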

[8] = system: MATIN; test: Pre-emergence herbicidal action against MATIN; format: in vivo, Matricaria inodora; settings: 1280 g/ha, scored visually after about 3 weeks vs untreated controls
How it was run: as §3

[9] = system: MATIN; test: Post-emergence herbicidal action against MATIN; format: in vivo, Matricaria inodora; settings: visual rating about 3 weeks after treatment
How it was run: as §2

[10] = system: ECHCG; test: Post-emergence herbicidal action against ECHCG; format: in vivo, Echinochloa crus-galli; settings: 1280 g/ha, post-emergence at one-leaf stage, rated visually after about 3 weeks vs untreated controls
How it was run: as §2

[11] = system: ALOMY; test: Pre-emergence herbicidal action against ALOMY; format: in vivo, Alopecurus myosuroides; settings: scored visually after about 3 weeks vs untreated controls, 100% = plants have died, 0% = like control plants
Source text: (§4) Seeds of mono- and dicotyledonous weed plants are placed in plastic pots in sandy loam soil (doubly sown with one species each of mono- or dicotyledonous weed plants per pot) and covered with soil. The compounds of the invention, formulated in the form of wettable powders (WP) or as emulsion concentrates (EC), are then applied onto the surface of the covering soil as aqueous suspension or emulsion with addition of 0.5% additive at a water application rate equivalent to 600 litres per hectare. After the treatment, the pots are placed in a greenhouse and kept under good growth conditions for the trial plants. After about 3 weeks, the effect of the preparations is scored visually in comparison with untreated controls as percentages. For example, 100% activity=the plants have died, 0% activity=like control plants. [table] Tables 4.1-4.15 below show the effects of selected compounds of the general formula (I) according to Tables 1 to 3 on various harmful plants at an application rate corresponding to 1280 or 320 g/ha, which have been obtained by the aforementioned experimental method.

[12] = system: AVEFA; test: Pre-emergence herbicidal action against AVEFA; format: in vivo, Avena fatua; settings: scored visually after about 3 weeks vs untreated controls, 100% = plants have died, 0% = like control plants
Source text: as §4

[13] = system: ECHCG; test: Pre-emergence herbicidal action against ECHCG; format: in vivo, Echinochloa crus-galli; settings: scored visually after about 3 weeks vs untreated controls, 100% = plants have died, 0% = like control plants
How it was run: as §3

[14] = system: VIOTR; test: Pre-emergence herbicidal action against VIOTR; format: in vivo, Viola tricolor; settings: 1280 g/ha, scored visually after about 3 weeks vs untreated controls
How it was run: as §3

[15] = system: CYPES; test: Pre-emergence herbicidal action against CYPES; format: in vivo, Cyperus esculentus; settings: scored visually after about 3 weeks vs untreated controls, 100% = plants have died, 0% = like control plants
How it was run: as §3

[16] = system: SETVI; test: Pre-emergence herbicidal action against SETVI; format: in vivo, Setaria viridis; settings: 1280 g/ha, scored visually after about 3 weeks vs untreated controls
How it was run: as §3

[17] = system: STEME; test: Pre-emergence herbicidal action against STEME; format: in vivo, Stellaria media; settings: scored visually after about 3 weeks vs untreated controls
How it was run: as §3

[18] = system: AMARE; test: Post-emergence herbicidal action against AMARE; format: in vivo, Amaranthus retroflexus; settings: visual rating about 3 weeks after treatment
How it was run: as §2

[19] = system: POLCO; test: Pre-emergence herbicidal action against POLCO; format: in vivo, Polygonum convolvulus; settings: 320 g/ha, scored visually after about 3 weeks vs untreated controls
How it was run: as §3

[20] = system: VERPE; test: Post-emergence herbicidal action against VERPE; format: in vivo, Veronica persica; settings: 320 g/ha, visual rating about 3 weeks after treatment
How it was run: as §2

[21] = system: POLCO; test: Post-emergence herbicidal action against POLCO; format: in vivo, Polygonum convolvulus; settings: 320 g/ha, visual rating about 3 weeks after treatment
How it was run: as §2

[22] = system: VERPE; test: Pre-emergence herbicidal action against VERPE; format: in vivo, Veronica persica; settings: 320 g/ha, scored visually after about 3 weeks vs untreated controls
How it was run: as §3

[23] = system: HORMU; test: Pre-emergence herbicidal action against HORMU; format: in vivo, Hordeum murinum; settings: 320 g/ha, scored visually after about 3 weeks vs untreated controls
Source text: as §4

[24] = system: SETVI; test: Post-emergence herbicidal action against SETVI; format: in vivo, Setaria viridis; settings: 1280 g/ha, post-emergence at one-leaf stage, rated visually after about 3 weeks vs untreated controls
How it was run: as §2

[25] = system: PHBPU; test: Post-emergence herbicidal action against PHBPU; format: in vivo, Pharbitis purpurea; settings: 320 g/ha, visual rating about 3 weeks after treatment
How it was run: as §2

[26] = system: AVEFA; test: Post-emergence herbicidal action against AVEFA; format: in vivo, Avena fatua; settings: 1280 g/ha, post-emergence at one-leaf stage, rated visually after about 3 weeks vs untreated controls
Method: as §1

Row | Structure (SMILES) | Post-emergence action against HORMU in % [1] [%] | Post-emergence action against VIOTR in % [2] [%] | herbicidal efficacy against harmful plants in the case of pre-emergence treatment [4] | Post-emergence action against STEME in % ([5]; 320 g/ha) [%] | Post-emergence action against STEME in % ([5]; 1280 g/ha) [%] | Post-emergence action against LOLRI in % [6] [%] | Pre-emergence action at 320 g/ha against AMARE in % [7] [%] | Pre-emergence action against AMARE in % [7] [%] | Post-emergence action against MATIN in % ([9]; 1280 g/ha) [%] | Post-emergence action against ECHCG in % [10] [%] | Pre-emergence action at 1280 g/ha against ECHCG in % [13] [%] | Pre-emergence action against SETVI in % [16] [%] | Pre-emergence action against STEME in % ([17]; 1280 g/ha) [%] | Post-emergence action against AMARE in % ([18]; 320 g/ha) [%] | Post-emergence action against AMARE in % ([18]; 1280 g/ha) [%] | Pre-emergence action against POLCO in % [19] [%] | Post-emergence action against VERPE in % [20] [%] | Post-emergence action against MATIN in % ([9]; 320 g/ha) [%] | Post-emergence action against POLCO in % [21] [%] | Pre-emergence action against HORMU in % [23] [%] | also measured
1 | COC(=O)C(C)Oc1nn(-c2cccc(F)c2)c(-c2cccc(F)c2)c1C#N (centres unmarked) [I-067] | 80 | 80 | good herbicidal efficacy | 80 | 90 | 90 | 90 | 100 | 80 | 90 | 80 | 100 | 90 | – | – | – | – | – | – | – | Post-emergence action against ALOMY in % [3]: 100%; Pre-emergence action against MATIN in % [8]: 90%; Pre-emergence action at 1280 g/ha against ALOMY in % [11]: 90%; Pre-emergence action at 1280 g/ha against AVEFA in % [12]: 80%; Pre-emergence action against VIOTR in % [14]: 100%; Pre-emergence action at 1280 g/ha against CYPES in % [15]: 90%
2 | COC(=O)[C@@H](C)Oc1nn(-c2ccccc2)c(-c2ccc(F)cc2)c1C#N [I-130] | 80 | 90 | – | 90 | 100 | 90 | 100 | 100 | 90 | 100 | 100 | 100 | 100 | 90 | 90 | 90 | 90 | 90 | 90 | 100 | Pre-emergence action against VERPE in % [22]: 100%; Pre-emergence action against STEME in % ([17]; 320 g/ha): 90%
3 | COC(=O)[C@@H](C)Oc1nn(-c2cccc(F)c2)c(-c2cccc(F)c2)c1C#N [I-125] | 90 | 90 | good herbicidal efficacy | – | 90 | – | 100 | 100 | 90 | 90 | 100 | 100 | 100 | 90 | 90 | 100 | 80 | 80 | 80 | 90 | Post-emergence action against SETVI in % [24]: 90%; Pre-emergence action against VERPE in % [22]: 90%; Post-emergence action against PHBPU in % [25]: 80%; Pre-emergence action against STEME in % ([17]; 320 g/ha): 90%
4 | CC(Oc1nn(-c2ccccc2)c(-c2ccc(F)cc2)c1Cl)C(=O)O (centres unmarked) [I-139] | 80 | 80 | good herbicidal efficacy | 80 | 90 | – | 100 | 100 | 90 | – | 100 | 100 | 100 | 90 | – | 90 | – | 80 | 90 | 90 | Pre-emergence action against VERPE in % [22]: 100%; Pre-emergence action against STEME in % ([17]; 320 g/ha): 100%
5 | COC(=O)C(C)Oc1nn(-c2ccccc2F)c(-c2ccc(F)c(F)c2)c1C#N (centres unmarked) [I-171] | – | – | – | – | 100 | 100 | – | 100 | 90 | 100 | 90 | 100 | 100 | – | 90 | – | – | – | – | – | Post-emergence action against SETVI in % [24]: 100%
6 | CCOC(=O)COc1nn(-c2ccccc2)c(-c2ccc(F)cc2)c1Br [I-056] | – | – | good herbicidal efficacy | – | 90 | – | 80 | 100 | 80 | – | – | 100 | 100 | 80 | 80 | 80 | 90 | 80 | 80 | 80 | Post-emergence action against SETVI in % [24]: 80%; Post-emergence action against AVEFA in % [26]: 90%; Post-emergence action against ALOMY in % [3]: 90%; Pre-emergence action against MATIN in % [8]: 90%; Pre-emergence action at 1280 g/ha against ALOMY in % [11]: 90%; Pre-emergence action at 1280 g/ha against AVEFA in % [12]: 80%; Pre-emergence action against VIOTR in % [14]: 80%; Pre-emergence action at 1280 g/ha against CYPES in % [15]: 90%; Post-emergence action against PHBPU in % [25]: 80%
